Columns and labels:
Assay in all cases: relative viability (nuclei count vs DMSO), 5 days (fraction); higher = more cells survive
Selisistat + Pemetrexed = compound: C1CC(C2=C(C1)C3=C(N2)C=CC(=C3)Cl)C(=O)N [Selisistat] + Nc1nc2[nH]cc(CCc3ccc(C(=O)N[C@@H](CCC(=O)O)C(=O)O)cc3)c2c(=O)[nH]1 [Pemetrexed] (partner 0.2 µM)
Summary of the method: (§1)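 After 5 days of treatment, lung cancer cells in 1536-well plates were fixed and stained in a single step (final 0.05% Triton X-100, 1% formaldehyde, 1 ug/ml Hoechst) and their nuclei counted on 4× images. Treatment had been applied by pin tool the day after seeding as one drug alone or as a fixed anchor-drug dose with five library-drug doses (not always all listed) in √10 steps. Relative viability is the nuclei count of treated wells divided by that of vehicle wells, and values are medians of duplicate plates.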

Selisistat + Olaparib = compound: C1CC(C2=C(C1)C3=C(N2)C=CC(=C3)Cl)C(=O)N [Selisistat] + O=C(c1cc(Cc2n[nH]c(=O)c3ccccc23)ccc1F)N1CCN(C(=O)C2CC2)CC1 [Olaparib] (partner 8 µM)
Summary of the method: as §1

Serdemetan + Pictilisib = compound: c1ccc2c(CCNc3ccc(Nc4ccncc4)cc3)c[nH]c2c1 [Serdemetan] + CS(=O)(=O)N1CCN(Cc2cc3nc(-c4cccc5[nH]ncc45)nc(N4CCOCC4)c3s2)CC1 [Pictilisib] (partner 1 µM)
Summary of the method: as §1

Serdemetan + Vorinostat = compound: c1ccc2c(CCNc3ccc(Nc4ccncc4)cc3)c[nH]c2c1 [Serdemetan] + O=C(CCCCCCC(=O)Nc1ccccc1)NO [Vorinostat] (partner 1 µM)
Summary of the method: as §1

Row | Cell Line | relative viability (Selisistat + Pemetrexed; first compound 0.4 µM) | relative viability (Selisistat + Pemetrexed; first compound 1.265 µM) | relative viability (Selisistat + Pemetrexed; first compound 4 µM) | relative viability (Selisistat + Pemetrexed; first compound 12.65 µM) | relative viability (Selisistat + Pemetrexed; first compound 40 µM) | relative viability (Selisistat + Olaparib; first compound 0.4 µM) | relative viability (Selisistat + Olaparib; first compound 1.265 µM) | relative viability (Selisistat + Olaparib; first compound 12.65 µM) | relative viability (Selisistat + Olaparib; first compound 40 µM) | relative viability (Serdemetan + Pictilisib; first compound 0.04 µM) | relative viability (Serdemetan + Pictilisib; first compound 0.1265 µM) | relative viability (Serdemetan + Pictilisib; first compound 0.4 µM) | relative viability (Serdemetan + Pictilisib; first compound 4 µM) | relative viability (Serdemetan + Vorinostat; first compound 0.04 µM) | relative viability (Serdemetan + Vorinostat; first compound 0.1265 µM) | relative viability (Serdemetan + Vorinostat; first compound 0.4 µM) | relative viability (Serdemetan + Vorinostat; first compound 1.265 µM) | relative viability (Serdemetan + Vorinostat; first compound 4 µM) | relative viability (Serdemetan + Pictilisib; first compound 1.265 µM) | relative viability (Selisistat + Olaparib; first compound 4 µM)
1 | NCI-H3122 | 0.184 | 0.198 | 0.187 | 0.205 | 0.188 | 0.661 | 0.661 | 0.556 | 0.649 | 0.627 | 0.669 | 0.6 | 0.55 | 1.05 | 0.969 | 0.928 | 0.587 | 0.877 | – | –
2 | PC-3 [JPC-3] | 1.14 | 1.15 | – | 0.951 | 1.02 | 1.13 | 1.1 | 1.02 | 1.07 | 0.748 | 0.693 | – | 0.735 | 0.877 | 0.807 | 0.671 | 0.626 | 0.835 | 0.705 | –
3 | PC-14 | 0.116 | 0.152 | 0.123 | 0.139 | 0.137 | 0.252 | 0.201 | 0.204 | 0.29 | 0.626 | 0.631 | 0.596 | 0.367 | 0.718 | 0.811 | – | 0.645 | 0.266 | 0.634 | 0.186
4 | RERF-LC-KJ | 0.482 | 0.466 | 0.467 | 0.466 | 0.468 | 0.962 | 0.916 | 0.828 | 0.839 | 0.433 | 0.561 | 0.569 | 0.388 | 0.687 | 0.611 | 0.609 | 0.71 | 0.654 | 0.475 | 0.844
5 | SK-LU-1 | 0.985 | 0.981 | 1.01 | 0.967 | 1.03 | 0.567 | 0.408 | 0.495 | 0.529 | 0.572 | 0.47 | 0.713 | 0.407 | 0.746 | 0.821 | 0.746 | 0.598 | 0.451 | 0.494 | 0.404
6 | SK-MES-1 | 1.01 | 0.957 | 0.917 | 0.828 | 1.01 | 0.769 | 0.717 | 0.736 | 0.809 | 0.333 | 0.378 | 0.377 | 0.205 | 0.962 | 1.08 | 0.889 | 0.962 | 0.71 | 0.363 | 0.823
7 | SW 1573 | 0.798 | 0.774 | – | 0.815 | 0.776 | 0.4 | 0.462 | 0.639 | 0.505 | 0.533 | 0.545 | 0.494 | 0.177 | 0.662 | 0.932 | 0.974 | 0.615 | 0.208 | 0.182 | 0.505

— the supplement of paper PMC10307832
